According to paper PMC9949698, “Visible-Light-Controlled Histone Deacetylase Inhibitors for Targeted Cancer Therapy” (Journal of Medicinal Chemistry, 2023):
pIC50: −log10 of the molar value. Like-named read-outs stand apart in the source and are kept apart here.

Tests used:
[1] = target: T1, human recombinant HDAC1 (Homo sapiens, UniProt Q13547); assay: Fluorogenic assay with human recombinant HDAC1, dark or illumination; assay type: biochemical; settings: for activity at the highest tested concentration in the dark: 10 μM; for IC50 under illumination, in words: continuous illumination
T1 construct: purchased BPS Bioscience
T1 sequence (Q13547 whole entry): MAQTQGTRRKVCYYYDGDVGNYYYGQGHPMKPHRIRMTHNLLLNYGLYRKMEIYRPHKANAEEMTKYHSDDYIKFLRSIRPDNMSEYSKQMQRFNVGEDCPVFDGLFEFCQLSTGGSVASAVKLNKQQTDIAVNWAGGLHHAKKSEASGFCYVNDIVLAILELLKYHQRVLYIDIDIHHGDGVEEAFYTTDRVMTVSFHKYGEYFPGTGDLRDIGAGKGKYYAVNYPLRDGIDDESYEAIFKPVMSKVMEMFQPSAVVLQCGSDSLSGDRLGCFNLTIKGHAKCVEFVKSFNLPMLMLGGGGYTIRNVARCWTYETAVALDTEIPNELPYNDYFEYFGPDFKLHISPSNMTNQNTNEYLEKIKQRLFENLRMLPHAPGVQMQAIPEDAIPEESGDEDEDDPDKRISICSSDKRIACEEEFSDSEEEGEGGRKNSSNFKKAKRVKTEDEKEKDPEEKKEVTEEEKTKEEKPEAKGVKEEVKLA
Method: To study the inhibition of HDAC enzymes by the compounds, we used a fluorogenic assay with human recombinant HDAC1.[32] The enzyme was incubated with an acetylated substrate and each inhibitor for 1 h at room temperature, under either dark or light conditions. We opted for illumination throughout the incubation period to maintain the maximum proportion of cis under light conditions. […] Then, the deacetylated substrate generated a fluorescent coumarin after incubation of the mixture with trypsin at 37 °C for 20 min.
Stock solutions of the compounds were diluted to 1 mM in DMSO and then heated to 60 or 80 °C to obtain solutions with the maximum amount of the trans isomer (dark). […] The 1 mM solutions were then serially diluted with HDAC buffer to 10 times the desired concentration, maintaining DMSO at 10%.
In control wells without the compound, inhibitor, or enzyme, HDAC buffer was added instead. […] Then, 50 μL of the stop solution was added and the plates were incubated at 37 °C for 20 min in the dark. Fluorescence was measured at a λem of 460 nm and a λex of 380 nm. Enzyme activity is expressed as a percentage with respect to the nontreated cells, after subtracting the blank (well with no enzyme and no compound).

[2] = test system: HeLa cells; assay: HeLa cell viability, MTS assay, dark or preillumination; assay type: cell-based; settings: for pIC50: Homo sapiens, HeLa; for IC50(dark)/IC50(light): Table 5; for viability decreasing to: under illumination
Method: We then proceeded to evaluate the effect of the compounds in a viability assay against HeLa cells.
(§1) HeLa, MCF7, and HT29 cells were maintained in adherent cultures in DMEM supplemented with 10% FBS. KG1 cells were maintained in a suspension culture in IMDM supplemented with 20% FBS.
Stock solutions of the compounds were heated to 60 or 80 °C to obtain solutions with the maximum amount of the trans isomer (dark). […] The solutions were then serially diluted with DMEM to give 20 times the desired final concentration, maintaining DMSO at 10%.
Cells were seeded in 96-well black flat bottom plates with a clear bottom at a density of 5 × 10^3 cells/well (HeLa) or 1 × 10^4 cells/well (MCF7, HT29, and KG1), in a volume of 95 μL.
(§2) Viability of HeLa, MCF7, and […] cells was determined with a CellTiter 96 assay (Promega), according to the manufacturer’s instructions. Briefly, 20 μL of CellTiter 96 reagent was added to each well, the plates were incubated at 37 °C for 2 h, and the absorbance at 490 nm was recorded. Viability is expressed as a percentage with respect to the nontreated cells.

[3] = test system: HT29 cells; assay: HT29 cell viability, MTS assay, 50 μM; assay type: cell-based; settings: 48 h; for effect on viability when preilluminated: preilluminated (380 or 550 nm)
Method: (§3) HDACis have been proposed as a potential therapeutic strategy against cancer stem cells (CSCs).[39],[40] We selected three cell lines that have a strong CSC phenotype (HT29,[41],[42] MCF7[43]−[45] and KG1[46]) and tested the best compounds at 50 μM under dark and illumination conditions.
as §1
(§4) Stock solutions of the compounds were heated to 60 or 80 °C to obtain solutions with the maximum amount of the trans isomer (dark). For the “light” solutions, the stock solutions were illuminated with 96-well LED array plates for 3 min at the maximum potency. The solutions were then serially diluted with DMEM to give 20 times the desired final concentration, maintaining DMSO at 10%.
(§5) Cells were seeded in 96-well black flat bottom plates with a clear bottom at a density of 5 × 10^3 cells/well (HeLa) or 1 × 10^4 cells/well (MCF7, HT29, and KG1), in a volume of 95 μL. After 24 h, 5 μL of compound solutions (20×) were added. Cells were incubated for 48 h.
as §2

[4] = test system: MCF7 cells; assay: MCF7 cell viability, MTS assay, 50 μM; assay type: cell-based; settings: 48 h; for effect on viability when preilluminated: preilluminated (380 or 550 nm)
Method: as §3, §1, §4, §5, §2

[5] = test system: KG1 cells; assay: KG1 cell viability, CellTiterGlo assay, 50 μM; assay type: cell-based; settings: 48 h; for effect on viability when preilluminated: preilluminated (380 or 550 nm)
Method: as §3, §1, §4, §5
Viability of KG1 cells was determined with a CellTiter-Glo (Promega) assay, according to the manufacturer’s instructions. Briefly, 100 μL of CellTiter-Glo reagent was added to each well, the plates were kept at room temperature for 10 min, and the luminescence was recorded. Viability is expressed as a percentage with respect to the nontreated cells.

[6] = UV–vis spectra and optimal isomerization wavelengths; assay type: physicochemical; settings: for λcis (optimal wavelength trans to cis) / λtrans (optimal wavelength cis to trans): UV–vis at 25–50 μM in DMSO, Teleopto plates (Table 1)
Method: Ultraviolet–visible (UV–vis) spectra were recorded using a Tecan Spark 20M Multimode Microplate reader. Samples (200 μL of compound solution/well) were prepared at […] in DMSO. Samples were measured between 300 and 800 nm with 2 nm fixed intervals in 96-well transparent plates. Illumination at different wavelengths was performed for 2 min using 96-well LED array plates (LEDA Teleopto) placed below the samples. […] Potencies were measured using a Thorlabs PM100D power energy meter connected with a standard photodiode power sensor (S120VC).

[7] = E/Z composition under light or temperature conditions by HPLC; assay type: physicochemical
[8] = UV–vis spectra and optimal isomerization wavelengths; assay type: physicochemical; settings: 25–50 μM in DMSO, using CoolLed at 217 mW/cm^2 instead of Teleopto plates
[9] = cited from earlier work
[10] = continuous illumination 550 nm (Table 4), read-out: IC50 light
[11] = dark (Table 4), read-out: IC50 dark
[12] = preillumination 550 nm, 48 h, read-out: IC50 light (concentration that reduces cell viability by half)
[13] = UV–vis spectra at 25–100 μM in DMSO (Table 3)
[14] = HPLC at isosbestic point (290–336 nm), 100 μM in DMSO after illumination with λcis (Table 3)
[15] = HPLC at isosbestic point (290–336 nm), 100 μM in DMSO after illumination with λtrans (Table 3)
[16] = dark vs 365 or 380 nm (Table 2), fold
[17] = dark, 1 h at room temperature (Table 2), read-out: IC50 dark
[18] = illumination 365 or 380 nm, 1 h at room temperature (Table 2), read-out: IC50 light
[19] = preillumination 380 nm, 48 h, read-out: IC50 light (concentration that reduces cell viability by half)
[20] = UV–vis spectra at 25–50 μM in DMSO (Table 1)
[21] = HPLC at isosbestic point (310–338 nm), 100 μM in DMSO after illumination with λcis (Table 1)
[22] = HPLC at isosbestic point (310–338 nm), 100 μM in DMSO after illumination with λtrans (Table 1)

| Structure (SMILES) | IC50(dark)/IC50(light) ([1]; Table 4) | pIC50 [1, 10] | pIC50 [1, 11] | pIC50 [2, 12] | IC50(dark)/IC50(light) [2] | cell death under dark vs light conditions ([2]; in words) | effect on viability in the dark [3] | effect on viability when preilluminated [3] | effect on viability in the dark [4] | effect on viability when preilluminated [4] | effect on viability in the dark [5] | effect on viability when preilluminated [5] | λcis [6, 13] [nm] | λmax cis [6, 13] [nm] | λmax trans [6, 13] [nm] | λtrans [6, 13] [nm] | % cis at λcis [7, 14] [%] | % trans at λtrans [7, 15] [%] | IC50(dark)/IC50(light) [1, 16] | λmax trans [6, 20] [nm] | also measured |
| --- | --- | --- | --- | --- | --- | --- | --- | --- | --- | --- | --- | --- | --- | --- | --- | --- | --- | --- | --- | --- | --- |
| COc1cc(F)c(/N=N/c2c(F)cc(C(=O)Nc3ccccc3N)cc2F)c(F)c1 [Compound 38a, (E)-N-(2-Aminophenyl)-4-((2,6-difluoro-4-methoxyphenyl)diazenyl)-3,5-difluorobenzamide] | ≈5.9 | 5.77 | ~5.00 | 4.54 | >3.4 | inducing cell death only under light conditions | little or no effect | significantly reduced the viability | little or no effect | significantly reduced the viability | little or no effect | significantly reduced the viability | 550 | 428 | 348 | 455 | 84 | 67 |  |  | pIC50 ([1]; supplementary CSV, read-out: HDAC1 IC50 dark): 5.00; pIC50 ([2]; dark, 48 h, read-out: IC50 dark (concentration that reduces cell viability by half)): < 4.00 |
| COc1ccc(/N=N/c2ccc(/C=C/C(=O)Nc3cc(-c4cccs4)ccc3N)cc2)cc1 [Compound 20, (E)-N-(2-Amino-5-(thiophen-2-yl)phenyl)-3-(4-((E)-(4-methoxyphenyl)diazenyl)phenyl)acrylamide] |  |  |  |  | >14 |  | little or no effect | significantly reduced the viability | little or no effect | significantly reduced the viability | little or no effect | significantly reduced the viability |  |  |  |  |  |  | >29 | 378 | pIC50 [1, 17]: < 5.00; pIC50 [1, 18]: 6.46; pIC50 [2, 19]: 5.13; pIC50 ([2]; preillumination, 24 h, read-out: IC50 (365 nm, 24 h)): 4.89; IC50 dark (concentration that reduces cell viability by half) ([2]; dark, 48 h): no activity; viability decreasing to ([2]; 48 h): 30%; λcis (optimal wavelength trans to cis) [6]: 380 nm; λtrans (optimal wavelength cis to trans) [6]: 550 nm; % cis at λcis [7, 21]: 63%; % trans at λtrans [7, 22]: 82% |
| COc1cc(F)c(/N=N/c2c(F)cc(/C=C/C(=O)Nc3ccccc3N)cc2Cl)c(Cl)c1 [Compound 32c, (E)-N-(2-Aminophenyl)-3-(3-chloro-4-((E)-(2-chloro-6-fluoro-4-methoxyphenyl)diazenyl)-5-fluorophenyl)acrylamide] | >2.6 | 5.41 | < 5.00 | 4.43 | >2.7 | inducing cell death only under light conditions | little or no effect | significantly reduced the viability | little or no effect | significantly reduced the viability | little or no effect | significantly reduced the viability | 550 | 442 | 358 | 455 | 68 | 85 |  |  | activity at the highest tested concentration in the dark ([1]; dark): no or little activity; IC50 under illumination, in words [1]: low micromolar range |
| COc1ccc(/N=N/c2ccc(/C=C/C(=O)Nc3ccccc3N)cc2)cc1 [Compound 11, (E)-N-(2-Aminophenyl)-3-(4-((E)-(4-methoxyphenyl)diazenyl)phenyl)acrylamide] |  |  |  |  | >8.3 |  | little or no effect | significantly reduced the viability | little or no effect | significantly reduced the viability | little or no effect | significantly reduced the viability |  |  |  |  |  |  | >50 | 378 | pIC50 [1, 17]: < 5.00; pIC50 [1, 18]: 6.70; pIC50 [2, 19]: 4.92; IC50 dark (concentration that reduces cell viability by half) ([2]; dark, 48 h): no activity; viability decreasing to ([2]; 48 h): 30%; stability after multiple cis/trans isomerization cycles ([6]; 25 μM in DMSO, 380–550 nm cycles, 2 min each): stable; λcis (optimal wavelength trans to cis) [6]: 380 nm; λtrans (optimal wavelength cis to trans) [6]: 550 nm; % cis at λcis [7, 21]: 80%; % trans at λtrans [7, 22]: 67% |
| CN(C)c1ccc(/N=N/c2ccc(C(=O)Nc3ccccc3N)cc2)cc1 [Compound 2] |  |  |  |  |  |  |  |  |  |  |  |  |  |  |  |  |  |  |  | 450 | activity under dark and illumination conditions ([2]; in words): inactive; λcis [8]: 460^5 nm; λtrans [8]: 580^5 nm; activation wavelength [9]: 470 nm; half-life ([9]; room temperature in PBS): 60 μs |
| COc1cc(F)c(/N=N/c2c(F)cc(/C=C/C(=O)Nc3ccccc3N)cc2F)c(F)c1 [Compound 32a, (E)-N-(2-Aminophenyl)-3-(4-((E)-(2,6-difluoro-4-methoxyphenyl)diazenyl)-3,5-difluorophenyl)acrylamide] | >5.0 | 5.70 | < 5.00 | 4.43 | >2.7 | inducing cell death only under light conditions | little or no effect | significantly reduced the viability | little or no effect | significantly reduced the viability | little or no effect | significantly reduced the viability | 550 | 434 | 358 | 455 | 77 | 74 |  |  | activity at the highest tested concentration in the dark ([1]; dark): no or little activity; IC50 under illumination, in words [1]: low micromolar range |
